Measured values taken from ChEMBL document CHEMBL5113482, “Discovery of fused benzimidazole-imidazole autophagic flux inhibitors for treatment of triple-negative breast cancer” (Eur J Med Chem, 2022).
Calls of active or inactive are those of the source.

Key:
MDA-MB-468 [1] = experiment: Cell cycle arrest in human MDA-MB-468 cells assessed as reduction in CDK2 expression measured after 48 hrs by Western blot analysis; format: functional, cell-based; conditions: dose 5-20 µM, DDE = dose-dependent effect
MDA-MB-231 [2] = experiment: Induction of apoptosis in human MDA-MB-231 cells assessed as increase in cytochrome c expression measured after 48 hrs by Western blot analysis; format: functional, cell-based; conditions: dose 5-20 µM, DDE = dose-dependent effect
MDA-MB-231 [3] = experiment: Inhibition of autophagic flux in human MDA-MB-231 cells assessed as reduction in polyubiquitinated H2A expression measured after 48 hrs by Western blot analysis; format: functional, cell-based
MDA-MB-231 [4] = experiment: Induction of DNA damage in human MDA-MB-231 cells assessed as reduction in BRCA2 expression measured after 6 to 48 hrs by Western blot analysis; format: functional, cell-based; conditions: dose 5-20 µM, time 6-48 hrs, DDE = dose-dependent effect
U-87 MG = experiment: Antiproliferative activity against human U87 cells assessed as cell growth inhibition measured after 48 hrs by MTT assay; format: functional, cell-based, U-87MG ATCC
PC-3 = experiment: Antiproliferative activity against human PC-3 cells assessed as cell growth inhibition measured after 48 hrs by MTT assay; format: functional, cell-based; conditions: PC-3, 48 h
MDA-MB-231 [5] = experiment: Antiproliferative activity against human MDA-MB-231 cells assessed as reduction in cell count by microscopy; format: functional, cell-based
MDA-MB-231 [6] = experiment: Induction of DNA damage in human MDA-MB-231 cells assessed as increase in gamma-H2AX accumulation measured after 48 hrs by immunofluorescence analysis; format: functional, cell-based
MDA-MB-231 [7] = experiment: Cell cycle arrest in human MDA-MB-231 cells assessed as reduction in cyclin B expression measured after 48 hrs by Western blot analysis; format: functional, cell-based; conditions: dose 5-20 µM, DDE = dose-dependent effect
MDA-MB-468 [8] = experiment: Cell cycle arrest in human MDA-MB-468 cells assessed as increase in CHK2 phosphorylation at Thr 68 residue measured after 48 hrs by Western blot analysis; format: functional, cell-based; conditions: dose 5-20 µM, DDE = dose-dependent effect
MDA-MB-231 [9] = experiment: Inhibition of autophagic flux in human MDA-MB-231 cells assessed as increase in nuclear p62 expression measured after 48 hrs by Western blot analysis; format: functional, cell-based; conditions: dose 5-20 µM, DDE = dose-dependent effect
MDA-MB-231 [10] = experiment: Cell cycle arrest in human MDA-MB-231 cells assessed as reduction in CDK2 expression measured after 48 hrs by Western blot analysis; format: functional, cell-based; conditions: dose 5-20 µM, DDE = dose-dependent effect
MDA-MB-231 [11] = experiment: Induction of apoptosis in human MDA-MB-231 cells assessed as increase in Bax expression measured after 48 hrs by Western blot analysis; format: functional, cell-based; conditions: dose 5-20 µM, DDE = dose-dependent effect
MDA-MB-231 [12] = experiment: Cell cycle arrest in human MDA-MB-231 cells assessed as reduction in CDK1 expression measured after 48 hrs by Western blot analysis; format: functional, cell-based; conditions: dose 5-20 µM, DDE = dose-dependent effect
MDA-MB-231 [13] = experiment: Antitumor activity against human MDA-MB-231 cells xenografted in NOD/SCID mouse assessed as reduction in Ki67 expression at 5 to 15 mg/kg, ip administered at 3 days interval for 24 days and measured on day 25 by immunohistochemical analysis; format: functional, organism-based; conditions: dose 5-15 mg/kg, time 25.0 day
Nibrin (Homo sapiens) = molecular target: T1, Nibrin (Homo sapiens) (UniProt O60934); experiment: Activation of NBS1 phosphorylation in human MDA-MB-231 cells at 5 to 20 uM measured after 6 to 48 hrs by Western blot analysis; format: cell-based; conditions: filed as activator, dose 5-20 µM, time 6-48 hrs
T1 sequence (whole entry): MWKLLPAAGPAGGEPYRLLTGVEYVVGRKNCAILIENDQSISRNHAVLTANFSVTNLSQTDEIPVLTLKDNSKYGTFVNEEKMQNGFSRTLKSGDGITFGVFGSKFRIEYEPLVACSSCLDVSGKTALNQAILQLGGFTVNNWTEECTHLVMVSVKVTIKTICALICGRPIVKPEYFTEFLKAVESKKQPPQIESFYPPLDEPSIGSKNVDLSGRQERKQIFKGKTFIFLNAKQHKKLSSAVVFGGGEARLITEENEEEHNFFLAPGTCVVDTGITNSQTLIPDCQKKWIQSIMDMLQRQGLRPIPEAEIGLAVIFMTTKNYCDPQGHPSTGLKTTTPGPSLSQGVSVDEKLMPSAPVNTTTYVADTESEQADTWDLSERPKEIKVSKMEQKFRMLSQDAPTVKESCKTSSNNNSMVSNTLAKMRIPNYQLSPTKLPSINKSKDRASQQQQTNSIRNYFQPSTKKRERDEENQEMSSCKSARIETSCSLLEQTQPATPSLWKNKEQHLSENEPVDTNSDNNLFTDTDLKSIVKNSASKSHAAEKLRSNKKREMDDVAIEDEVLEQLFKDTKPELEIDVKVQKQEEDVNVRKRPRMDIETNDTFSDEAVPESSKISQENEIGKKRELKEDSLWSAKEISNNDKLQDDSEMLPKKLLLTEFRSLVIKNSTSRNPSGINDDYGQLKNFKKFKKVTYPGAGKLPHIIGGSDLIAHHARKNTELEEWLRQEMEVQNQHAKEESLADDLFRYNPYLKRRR

MDA-MB-231 [14] = experiment: Antitumor activity against human MDA-MB-231 cells xenografted in ip dosed NOD/SCID mouse assessed as reduction in tumor growth administered at 3 days interval for 24 days and measured during compound dosing by caliper method; format: functional, organism-based; conditions: dose 5-15 mg/kg, time 24.0 day, DDE = dose-dependent effect
MDA-MB-231 [15] = experiment: Antiproliferative activity against human MDA-MB-231 cells assessed as cell growth inhibition measured after 48 hrs by MTT assay; format: functional, cell-based; conditions: MDA-MB-231, 48 h
MDA-MB-231 [16] = experiment: Cell cycle arrest in human MDA-MB-231 cells assessed as increase in CHK1 phosphorylation at Ser 345 residue measured after 48 hrs by Western blot analysis; format: functional, cell-based; conditions: dose 5-20 µM, DDE = dose-dependent effect
MDA-MB-468 [17] = experiment: Cell cycle arrest in human MDA-MB-468 cells assessed as reduction in cyclin A expression measured after 48 hrs by Western blot analysis; format: functional, cell-based; conditions: dose 5-20 µM, DDE = dose-dependent effect
MDA-MB-231 [18] = experiment: Antitumor activity against human MDA-MB-231 cells xenografted in ip dosed NOD/SCID mouse assessed as upregulation of p62 expression administered at 3 days interval for 24 days and measured on day 25 by Western blot analysis; format: functional, organism-based; conditions: dose 5-15 mg/kg, time 25.0 day, DDE = dose-dependent effect
MDA-MB-231 [19] = experiment: Cell cycle arrest in human MDA-MB-231 cells assessed as increase in p21 expression measured after 48 hrs by Western blot analysis; format: functional, cell-based; conditions: dose 5-20 µM, DDE = dose-dependent effect
MDA-MB-468 [20] = experiment: Inhibition of autophagic flux in human MDA-MB-468 cells assessed as reduction in RNF8 expression at 5 to 20 uM measured after 6 to 48 hrs by Western blot analysis; format: functional, cell-based; conditions: dose 5-20 µM, time 6-48 hrs
MDA-MB-231 [21] = experiment: Induction of apoptosis in human MDA-MB-231 cells assessed as increase in late apoptotic cells measured after 48 hrs by Annexin V-FITC/propidium iodide staining based flow cytometry; format: functional, cell-based; conditions: dose 5-20 µM, DDE = dose-dependent effect
SW-620 = experiment: Antiproliferative activity against human SW-620 cells assessed as cell growth inhibition measured after 48 hrs by MTT assay; format: functional, cell-based; conditions: SW-620, 48 h
MDA-MB-231 [22] = experiment: Induction of apoptosis in human MDA-MB-231 cells assessed as increase in Bim expression measured after 48 hrs by Western blot analysis; format: functional, cell-based; conditions: dose 5-20 µM, DDE = dose-dependent effect
MDA-MB-468 [23] = experiment: Induction of mitochondrial membrane potential loss in human MDA-MB-468 cells at 20 uM measured after 48 hrs by JC-1 staining based assay relative to control; format: functional
MDA-MB-468 [24] = experiment: Induction of apoptosis in human MDA-MB-468 cells assessed as increase in Bak expression measured after 48 hrs by Western blot analysis; format: functional, cell-based; conditions: dose 5-20 µM, DDE = dose-dependent effect

O=C(NC1CCCCC1)c1[nH]cnc1-c1nc2ccccc2[nH]1
active: Activity (MDA-MB-468 [1]) Dde | Activity (MDA-MB-231 [2]) Dde | inhibition (MDA-MB-231 [3]) | Activity (MDA-MB-231 [4]) Dde | Activity (MDA-MB-231 [5]) | Activity (MDA-MB-231 [6]) | Activity (MDA-MB-231 [7]) Dde | Activity (MDA-MB-468 [8]) Dde | inhibition (MDA-MB-231 [9]) Dde | Activity (MDA-MB-231 [10]) Dde | Activity (MDA-MB-231 [11]) Dde | Activity (MDA-MB-231 [12]) Dde | Activity (MDA-MB-231 [13]) | Activity (Nibrin (Homo sapiens)) | TGI (MDA-MB-231 [14]) Dde | Activity (MDA-MB-231 [16]) Dde | Activity (MDA-MB-468 [17]) Dde | Activity (MDA-MB-231 [18]) Dde | Activity (MDA-MB-231 [19]) Dde | inhibition (MDA-MB-468 [20]) | Activity (MDA-MB-231 [21]) Dde | Activity (MDA-MB-231 [22]) Dde | Activity (MDA-MB-468 [24]) Dde
17.5 µM: IC50 (PC-3)
8.3 µM: IC50 (MDA-MB-231 [15])
50%: Activity (MDA-MB-468 [23])
25.4 µM: IC50 (SW-620)
15.4 µM: IC50 (U-87 MG)
